From patent publication US20050221317A1, “Use of an epitope of vascular endothelial growth factor receptor kdr/flk-1” (AstraZeneca AB, priority 2002, published 2005)

Biological target: T1, KDR/Flk-1 receptor epitope Y1214 (Homo sapiens, UniProt P35968)
T1 construct: host or cells: HUVEC (human umbilical vein endothelial cells)
Assay: Phosphorylation of the Y1214 epitope of KDR/Flk-1 in VEGF-treated HUVECs (Western blot with anti-Y1214 antibody)
Assay type: cell-based
Details: VEGF-treated HUVEC cell lysate, 0.007-5.0 uM compound, FIG. 1
Protocol: HUVECs were obtained from TCS Cellworks, Buckingham, UK (Catalogue number ZHS 8965) and cultured in Large Vessel Endothelial Cell Basal Medium+recommended 5 supplements obtained from TCS Cellworks (catalogue numbers ZHM 2951 and ZHS 8965). Cells were used when close to confluence in 3×75 cm^2 tissue culture flasks. Prior to treatment with inhibitor cells were cultured overnight in Basal Medium without supplements.
HUVECS were treated with inhibitors as follows. […] After 82 minutes 50 ng/ml VEGF was added to the cells and the cells incubated for a further 8 minutes at 37° C. After this further incubation the culture medium was removed from the cells and the cells lysed with 2.5 ml sample buffer [Sample buffer: 4 parts NuPage sample buffer (Novex, NP0007, Invitrogen, Paisley, Scotland) to 1 part distilled water]. The lysate was collected, 3 μl of β-mercaptoethanol added and heated to 95° C. for 10 minutes to ensure complete reduction and denaturation. The lysates can be stored at −20° C. until analysed.
Lysates were analysed using SDS polyacrylamide gel electrophoresis (PAGE) to separate the proteins within the lysates. […]
Nitrocellulose membranes were incubated for 1 hour in 5% solution of dried, skimmed milk powder in PBST [Marvel/PBST] at room temperature. […] The light from this is detected by photographic film, for example Kodak Biomax ML.

T1 sequence (P35968 20-1356): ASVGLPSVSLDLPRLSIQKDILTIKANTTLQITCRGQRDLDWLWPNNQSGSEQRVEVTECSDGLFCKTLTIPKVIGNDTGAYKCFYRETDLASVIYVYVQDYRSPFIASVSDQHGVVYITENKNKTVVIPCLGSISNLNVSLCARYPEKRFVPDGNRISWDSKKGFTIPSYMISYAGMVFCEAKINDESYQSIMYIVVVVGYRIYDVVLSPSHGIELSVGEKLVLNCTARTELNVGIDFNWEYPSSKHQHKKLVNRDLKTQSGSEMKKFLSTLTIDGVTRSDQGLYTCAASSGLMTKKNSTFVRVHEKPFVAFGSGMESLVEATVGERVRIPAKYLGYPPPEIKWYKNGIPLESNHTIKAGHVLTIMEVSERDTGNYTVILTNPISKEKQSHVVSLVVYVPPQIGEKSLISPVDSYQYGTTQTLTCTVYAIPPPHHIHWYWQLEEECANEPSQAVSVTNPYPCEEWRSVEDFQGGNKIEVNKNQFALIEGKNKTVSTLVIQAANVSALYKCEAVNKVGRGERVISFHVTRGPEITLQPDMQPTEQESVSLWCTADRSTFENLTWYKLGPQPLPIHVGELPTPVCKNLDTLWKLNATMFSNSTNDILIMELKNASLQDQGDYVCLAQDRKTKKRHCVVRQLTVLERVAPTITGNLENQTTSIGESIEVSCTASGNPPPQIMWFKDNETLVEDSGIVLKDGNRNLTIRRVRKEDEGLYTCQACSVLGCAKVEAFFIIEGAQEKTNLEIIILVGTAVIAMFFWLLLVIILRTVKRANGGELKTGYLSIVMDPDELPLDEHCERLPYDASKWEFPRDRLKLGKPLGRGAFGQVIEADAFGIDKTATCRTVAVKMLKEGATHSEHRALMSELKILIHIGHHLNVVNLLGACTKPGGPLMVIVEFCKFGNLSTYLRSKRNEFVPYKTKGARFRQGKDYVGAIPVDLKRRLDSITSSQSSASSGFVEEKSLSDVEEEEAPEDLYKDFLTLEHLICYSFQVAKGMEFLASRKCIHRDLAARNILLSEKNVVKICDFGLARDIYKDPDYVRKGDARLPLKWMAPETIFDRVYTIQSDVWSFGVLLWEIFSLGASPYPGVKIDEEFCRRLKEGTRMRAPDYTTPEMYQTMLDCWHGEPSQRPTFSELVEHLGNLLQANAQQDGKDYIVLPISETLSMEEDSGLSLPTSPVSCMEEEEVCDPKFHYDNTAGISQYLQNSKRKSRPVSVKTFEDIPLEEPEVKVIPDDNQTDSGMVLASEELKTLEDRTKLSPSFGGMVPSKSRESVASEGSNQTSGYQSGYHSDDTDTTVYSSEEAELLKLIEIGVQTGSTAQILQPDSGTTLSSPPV

COc1cc2c(Oc3ccc4[nH]c(C)cc4c3F)ncnc2cc1OCCCN1CCCCC1 [4[(4-fluoro-2-methyl-1H-indol-5-yl)oxy]-6-methoxy-7-(3-piperidin-1-ylpropoxy)quinazoline]
phosphorylation of the Y1214 epitope: dose dependent decrease in phosporylation
